From patent US10087166B2, “Cyclic amine azaheterocyclic carboxamides” (Merck Patent GmbH, priority 2010, dated 2018)

target: T1, P70S6K (Homo sapiens, UniProt P23443, T412E); assay: P70S6K enzyme assay; type: biochemical; conditions: P70S6K T412E mutant 3 nM, 24 μM ATP, FITC-AHA-AKRRRLSSLRA-OH substrate, 90 min at 25° C.; read-out: IC50p70S6K
T1 construct: purchased Millipore
Method: P70S6K inhibitor compounds are diluted and plated in 96 well plates. A reaction mixture including the following components is then added to the compound plate to initiate the enzyme reaction; P70S6K (3 nM, T412E mutant, Millipore) is mixed with 24 μM ATP in an assay buffer containing 100 mM Hepes (pH 7.5), 5 mM MgCl2, 1 mM DTT, 0.015% Brij and 1 μM of the substrate peptide FITC-AHA-AKRRRLSSLRA-OH (derived from the S6 ribosomal protein sequence, FITC=fluorescein isothiocyanate, AHA=6-aminohexanoic acid). The reaction is incubated for 90 min at 25° C., before the addition of 10 mM EDTA to stop the reaction. The proportion of substrate and product (phosphorylated) peptide is analyzed on a Caliper Life Sciences Lab Chip 3000, using a pressure of −1.4 psi, and upstream and downstream voltages of −3000 and −700 respectively. Product peaks are resolved before substrate peaks on the resulting chromatograms.
To assess the inhibitory potential of the compounds, IC50-values were determined, as shown in Chemical Synthesis section above.

T1 sequence (P23443 whole entry T412E): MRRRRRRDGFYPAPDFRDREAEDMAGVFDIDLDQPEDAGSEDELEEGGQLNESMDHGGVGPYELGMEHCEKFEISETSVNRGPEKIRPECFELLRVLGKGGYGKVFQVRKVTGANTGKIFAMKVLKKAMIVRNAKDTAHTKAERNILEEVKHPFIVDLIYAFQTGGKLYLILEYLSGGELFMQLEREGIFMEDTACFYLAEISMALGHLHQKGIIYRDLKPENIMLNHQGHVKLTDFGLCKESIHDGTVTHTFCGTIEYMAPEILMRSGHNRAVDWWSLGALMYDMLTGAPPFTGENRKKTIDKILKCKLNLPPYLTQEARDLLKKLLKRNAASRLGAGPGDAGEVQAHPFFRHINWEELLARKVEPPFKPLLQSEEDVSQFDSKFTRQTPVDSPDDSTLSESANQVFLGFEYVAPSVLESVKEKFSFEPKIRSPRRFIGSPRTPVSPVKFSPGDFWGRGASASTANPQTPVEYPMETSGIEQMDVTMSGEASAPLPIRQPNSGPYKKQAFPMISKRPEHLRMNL

Structure (SMILES) | IC50
COc1ccc([C@H]2CNC[C@@H]2Nc2ncnc3c(C(N)=O)cccc23)cc1F [compound 63, 4-(((3R,4S)-4-(3-fluoro-4-methoxyphenyl)pyrrolidin-3-yl)amino)quinazoline-8-carboxamide] | 810 nM
NC(=O)c1cccc2c(N[C@H]3CNC[C@@H]3c3ccccc3Cl)ncnc12 [compound 65, 4-(((3R,4S)-4-(2-chlorophenyl)pyrrolidin-3-yl)amino)quinazoline-8-carboxamide] | 340 nM
NC(=O)c1cccc2c(N[C@@H]3CNC[C@H]3c3ccccc3Cl)ncnc12 [compound 66, 4-(((3S,4R)-4-(2-chlorophenyl)pyrrolidin-3-yl)amino)quinazoline-8-carboxamide] | 1.4 nM
NC(=O)c1cccc2c(N[C@@H]3CNC[C@H]3c3cccc(F)c3)ncnc12 [compound 67, 4-(((3S,4R)-4-(3-fluorophenyl)pyrrolidin-3-yl)amino)quinazoline-8-carboxamide] | 1.54 nM
NC(=O)c1cccc2c(N[C@H]3CNC[C@@H]3c3cccc(F)c3)ncnc12 [compound 68, 4-(((3R,4S)-4-(3-fluorophenyl)pyrrolidin-3-yl)amino)quinazoline-8-carboxamide] | 48 nM
NC(=O)c1cccc2c(N[C@H]3CNC[C@@H]3c3ccc4ncccc4c3)ncnc12 [compound 70, 4-(((3R,4S)-4-(quinolin-6-yl)pyrrolidin-3-yl)amino)quinazoline-8-carboxamide] | 3.3 nM
NC(=O)c1cccc2c(N[C@@H]3CNC[C@H]3c3ccc4ncccc4c3)ncnc12 [compound 71, 4-(((3S,4R)-4-(quinolin-6-yl)pyrrolidin-3-yl)amino)quinazoline-8-carboxamide] | 62 nM
COc1cccc([C@H]2CNC[C@@H]2Nc2ncnc3c(C(N)=O)cccc23)c1 [compound 72, 4-(((3R,4S)-4-(3-methoxyphenyl)pyrrolidin-3-yl)amino)quinazoline-8-carboxamide] | 360 nM
COc1cccc([C@@H]2CNC[C@H]2Nc2ncnc3c(C(N)=O)cccc23)c1 [compound 73, 4-(((3S,4R)-4-(3-methoxyphenyl)pyrrolidin-3-yl)amino)quinazoline-8-carboxamide] | 6.4 nM
Cc1cc([C@H]2CNC[C@@H]2Nc2ncnc3c(C(N)=O)cccc23)ccc1F [compound 75, 4-(((3R,4S)-4-(4-fluoro-3-methylphenyl)pyrrolidin-3-yl)amino)quinazoline-8-carboxamide] | 64 nM
Cc1cc([C@@H]2CNC[C@H]2Nc2ncnc3c(C(N)=O)cccc23)ccc1F [compound 76, 4-(((3S,4R)-4-(4-fluoro-3-methylphenyl)pyrrolidin-3-yl)amino)quinazoline-8-carboxamide] | 3.4 nM
NC(=O)c1cccc2c(N[C@@H]3CNC[C@H]3c3cccc4ccccc34)ncnc12 [compound 79, 4-(((3S,4R)-4-(naphthalen-1-yl)pyrrolidin-3-yl)amino)quinazoline-8-carboxamide] | 1.2 nM
NC(=O)c1cccc2c(N[C@H]3CNC[C@@H]3c3ccc4ccccc4c3)ncnc12 [compound 80, 4-(((3R,4S)-4-(naphthalen-2-yl)pyrrolidin-3-yl)amino)quinazoline-8-carboxamide] | 24 nM
Cc1nc(N[C@H]2CNC[C@@H]2c2cccc(F)c2)c2cccc(C(N)=O)c2n1 [compound 83, 4-(((3R,4S)-4-(3-fluorophenyl)pyrrolidin-3-yl)amino)-2-methylquinazoline-8-carboxamide] | 160 nM
Cc1nc(N[C@@H]2CNC[C@H]2c2cccc(F)c2)c2cccc(C(N)=O)c2n1 [compound 84, 4-(((3S,4R)-4-(3-fluorophenyl)pyrrolidin-3-yl)amino)-2-methylquinazoline-8-carboxamide] | 1.7 nM
N#Cc1cccc([C@H]2CNC[C@@H]2Nc2ncnc3c(C(N)=O)cccc23)c1 [compound 87, 4-(((3R,4S)-4-(3-cyanophenyl)pyrrolidin-3-yl)amino)quinazoline-8-carboxamide] | 81 nM
